The results in this text go back to ChEMBL document CHEMBL1158031, “Biscembranes from the soft coral Sarcophyton glaucum” (J Nat Prod, 2006).

Broadly, the IC50 is the concentration that gives 50% inhibition. Lower therefore signals greater potency.

Calls of active or inactive are those of the source. The rule behind the calls is not given here.

Assay [1] relates to HL-60. The experiment in a line: Cytotoxicity against human HL-60 upto 100 uM. It counts as functional, cell-based.
Assay [2] relates to HL-60. The assay is described as follows: Cytotoxicity against human HL-60. It counts as functional, cell-based.

Turning to `COC(=O)[C@]12CC(=O)[C@H](C(C)C)CC(=O)/C(C)=C/CC/C(C)=C/C(=O)[C@H]1CC(C)=C1C[C@H](O)[C@](C)(O)[C@H]3CC[C@@](C)(O)[C@H](CC/C(C)=C/[C@@H]12)O3`, the result in assay [1] was inactive.
Take `COC(=O)[C@]12CC(=O)[C@H](C(C)C)CC(=O)/C(C)=C/CC/C(C)=C/C(=O)[C@H]1CC(C)=C1C[C@H](OC(C)=O)[C@](C)(O)[C@H]3CC[C@@](C)(O)[C@H](CC/C(C)=C/[C@@H]12)O3`: in assay [1], the result was inactive.
As for `COC(=O)[C@]12CC(=O)[C@H](C(C)C)CC(=O)/C(C)=C/CC/C(C)=C\C(=O)[C@H]1CC(C)=C1C[C@H](OC(C)=O)[C@](C)(O)[C@H]3CC[C@@](C)(O)[C@H](CC/C(C)=C/[C@@H]12)O3` [BISGLAUCUMLIDE C], in assay [2], the IC50 stood at 33.7 µM.
`COC(=O)[C@]12CC(=O)[C@H](C(C)C)CC(=O)/C(C)=C\CC/C(C)=C\C(=O)[C@H]1CC(C)=C1C[C@H](OC(C)=O)[C@](C)(O)[C@H]3CC[C@@](C)(O)[C@H](CC/C(C)=C/[C@@H]12)O3` [BISGLAUCUMLIDE D] yielded a concentration for half-maximal inhibition (IC50) in assay [2] of 42.3 µM. The IC50 values of the last two compounds are within 1.5-fold of each other.
